According to US20160009674A1, “PROTOTYPICAL BRAIN PROTECTIVE ACTIVITY OF TETRAHYDRO-N-METHYL-2,2-DIPHENYL-3-FURANOMETHANAMINE (AE37MET)” (priority 2013, published 2016):
“Also recorded” adds a separate entry of the source.

Legend:
hippocampal slices = assay: in vitro evaluation of the compounds' own functional excitotoxicity on hippocampal slices
[1] = tested on: NMDA (10 μM) induced functional excitotoxicity, hippocampal slices; assay: NMDA (10 μM) induced functional excitotoxicity in rat hippocampal slices; details: for neuroprotection against NMDA induced functional excitotoxicity: hippocampal slices
[2] = molecular target: N-methyl-D-aspartate (NMDA) receptors; assay: NMDA receptor affinity; type: binding
brain ischemia = brain ischemia in mice; type: in vivo; details: for neuroprotection against mice brain ischemia: dose not given
sigma-1 [3] = molecular target: T1, sigma-1 (Homo sapiens, UniProt Q99720); assay: sigma-1 agonistic activity
T1 sequence (Q99720 whole entry): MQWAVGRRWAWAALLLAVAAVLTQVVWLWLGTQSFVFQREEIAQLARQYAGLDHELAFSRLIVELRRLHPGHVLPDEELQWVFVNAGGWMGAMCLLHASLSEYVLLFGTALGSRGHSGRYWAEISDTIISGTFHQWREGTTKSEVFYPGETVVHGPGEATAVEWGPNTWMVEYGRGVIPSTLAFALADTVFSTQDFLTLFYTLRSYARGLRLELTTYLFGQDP

M2 muscarinic receptors [4] = molecular target: T2, M2 muscarinic receptors (Cavia porcellus, UniProt H0VRN8); assay: functional M2 antagonism, guinea pig left atria
T2 construct: from tissue; host or cells: guinea pig left atria
T2 sequence (H0VRN8 1-466): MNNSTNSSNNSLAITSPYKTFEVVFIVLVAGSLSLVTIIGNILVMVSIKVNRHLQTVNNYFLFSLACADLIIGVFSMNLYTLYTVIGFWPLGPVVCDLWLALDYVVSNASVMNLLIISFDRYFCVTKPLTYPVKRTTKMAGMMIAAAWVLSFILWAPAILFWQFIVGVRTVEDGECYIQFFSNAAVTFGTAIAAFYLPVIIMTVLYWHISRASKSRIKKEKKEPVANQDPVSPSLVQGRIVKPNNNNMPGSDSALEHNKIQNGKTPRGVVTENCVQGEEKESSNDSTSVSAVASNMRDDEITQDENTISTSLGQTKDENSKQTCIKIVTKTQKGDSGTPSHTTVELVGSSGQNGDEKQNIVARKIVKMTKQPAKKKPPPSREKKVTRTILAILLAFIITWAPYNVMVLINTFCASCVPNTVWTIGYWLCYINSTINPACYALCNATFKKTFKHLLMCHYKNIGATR

PTZ convulsions = assay: Pentylenetetrazole (PTZ) convulsions in mice; type: in vivo; details: 10 to 30 mg/kg po
[5] = memory perturbations in mice; details: 0.1 to 45 mg/kg, per os
M2 muscarinic receptors [6] = molecular target: T3, M2 muscarinic receptors (Homo sapiens, UniProt P08172); assay: M2 muscarinic receptor affinity; type: binding
T3 sequence (P08172 1-466): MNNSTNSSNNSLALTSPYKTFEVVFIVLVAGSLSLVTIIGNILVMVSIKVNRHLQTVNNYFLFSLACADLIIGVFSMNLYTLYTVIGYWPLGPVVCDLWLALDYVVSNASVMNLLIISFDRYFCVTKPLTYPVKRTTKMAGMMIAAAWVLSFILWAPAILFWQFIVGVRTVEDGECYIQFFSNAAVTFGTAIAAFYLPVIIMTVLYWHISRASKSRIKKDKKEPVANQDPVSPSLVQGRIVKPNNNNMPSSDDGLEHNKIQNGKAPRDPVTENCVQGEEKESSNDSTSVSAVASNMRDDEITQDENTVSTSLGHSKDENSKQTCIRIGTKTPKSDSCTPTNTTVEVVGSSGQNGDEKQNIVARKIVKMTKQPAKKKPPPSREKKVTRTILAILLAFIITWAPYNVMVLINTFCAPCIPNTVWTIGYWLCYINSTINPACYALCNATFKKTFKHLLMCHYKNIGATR

[7] = tested on: mitochondrial toxicity of pentylenetetrazole (PTZ); assay: latency of lethality of pentylenetetrazole (PTZ) in mice; type: in vivo; details: PTZ 130 mg/kg ip
M3 muscarinic receptors [8] = molecular target: T4, M3 muscarinic receptors (Cavia porcellus, UniProt H0W1Z3); assay: functional M3 antagonism, guinea pig ileum
T4 construct: from tissue; host or cells: guinea pig ileum
T4 sequence (H0W1Z3 1-590): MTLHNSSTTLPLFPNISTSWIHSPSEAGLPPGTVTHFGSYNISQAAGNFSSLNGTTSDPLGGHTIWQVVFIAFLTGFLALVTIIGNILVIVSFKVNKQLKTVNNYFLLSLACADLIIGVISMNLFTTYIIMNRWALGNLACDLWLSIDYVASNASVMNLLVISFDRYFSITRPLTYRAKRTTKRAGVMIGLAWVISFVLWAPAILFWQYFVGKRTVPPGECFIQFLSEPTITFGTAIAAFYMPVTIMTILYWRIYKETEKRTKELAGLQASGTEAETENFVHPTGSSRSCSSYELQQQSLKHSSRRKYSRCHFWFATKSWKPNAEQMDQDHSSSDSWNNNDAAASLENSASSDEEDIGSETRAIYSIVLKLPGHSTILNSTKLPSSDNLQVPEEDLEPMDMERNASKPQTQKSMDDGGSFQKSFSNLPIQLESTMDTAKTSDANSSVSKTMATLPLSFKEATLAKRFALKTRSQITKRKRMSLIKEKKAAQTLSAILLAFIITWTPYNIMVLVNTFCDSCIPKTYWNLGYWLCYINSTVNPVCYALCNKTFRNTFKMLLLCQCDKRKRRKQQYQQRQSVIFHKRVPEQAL

[9] = tested on: M2 and M3 muscarinic receptors in the periphery; assay: antagonism of peripheral M2 and M3 muscarinic receptors in mice; type: in vivo; details: from 1 to 10 mg/kg ip
[10] = tested on: Aβ25-35 induced amnesia and neurotoxicity; assay: Aβ25-35 induced amnesia and neurotoxicity in mice (Y-maze, step-through); type: in vivo
sodium channels = assay: sodium channel affinity; type: binding
sigma-2 receptors = sigma-2 receptors (Homo sapiens, UniProt Q5BJF2); assay: sigma-2 receptor affinity (binding)
sigma-2 receptors, sequence (Q5BJF2 whole entry): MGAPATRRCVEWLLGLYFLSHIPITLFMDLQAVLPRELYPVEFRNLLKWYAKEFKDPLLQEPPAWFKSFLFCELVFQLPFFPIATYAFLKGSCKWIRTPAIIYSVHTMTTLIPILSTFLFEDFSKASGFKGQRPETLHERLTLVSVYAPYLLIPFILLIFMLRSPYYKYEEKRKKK

MES convulsions = assay: Maximal Electrochoc Seizures (MES) in mice; type: in vivo; details: 10 to 30 mg/kg po
M3 muscarinic receptors [11] = molecular target: M3 muscarinic receptors (Homo sapiens, UniProt P20309); assay: M3 muscarinic receptor affinity; type: binding
M3 muscarinic receptors (Homo sapiens, UniProt P20309), sequence (P20309 whole entry): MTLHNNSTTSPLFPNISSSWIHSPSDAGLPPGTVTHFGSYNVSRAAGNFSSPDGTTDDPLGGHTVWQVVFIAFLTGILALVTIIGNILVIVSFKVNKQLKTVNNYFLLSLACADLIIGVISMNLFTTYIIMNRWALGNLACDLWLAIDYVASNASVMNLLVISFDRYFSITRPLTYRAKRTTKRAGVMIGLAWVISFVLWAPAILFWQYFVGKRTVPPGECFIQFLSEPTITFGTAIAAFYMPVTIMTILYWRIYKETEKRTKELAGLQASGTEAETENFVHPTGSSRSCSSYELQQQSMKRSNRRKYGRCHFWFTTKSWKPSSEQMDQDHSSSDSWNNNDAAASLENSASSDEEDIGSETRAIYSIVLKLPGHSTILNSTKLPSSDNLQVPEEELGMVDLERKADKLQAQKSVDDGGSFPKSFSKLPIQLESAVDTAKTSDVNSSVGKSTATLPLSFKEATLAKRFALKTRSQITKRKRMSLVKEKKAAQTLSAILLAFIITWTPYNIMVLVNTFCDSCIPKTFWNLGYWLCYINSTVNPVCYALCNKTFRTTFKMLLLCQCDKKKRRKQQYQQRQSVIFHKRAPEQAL

sigma-1 [12] = molecular target: T1, sigma-1; assay: sigma-1 receptor affinity (binding)
immobility = assay: forced swimming (Porsolt) test in mice; type: in vivo; details: from 5 mg/kg po

CN(C)CC1COC(c2ccccc2)(c2ccccc2)C1 (stereo not shown) [AE14, tetrahydro-N,N-dimethyl-5,5-diphenyl-3-furanomethanamine]
excitotoxic effects of the compound itself (functional excitotoxicity) (hippocampal slices): significant excitoneurotoxic effects
neuroprotection against NMDA induced functional excitotoxicity [1]: no significant neuroprotection
IC50 [2]: > 10 µM
neuroprotection against mice brain ischemia (brain ischemia): inactive
sigma-1 agonistic activity (sigma-1 [3]): high and selective sigma-1 agonistic activity

CN(C)CC1CCOC1(c1ccccc1)c1ccccc1 (stereo not shown) [AE37, tetrahydro-N,N-dimethyl-2,2-diphenyl-3-furanomethanamine]
excitotoxic effects of the compound itself (functional excitotoxicity) (hippocampal slices): significant excitoneurotoxic effects
neuroprotection against NMDA induced functional excitotoxicity [1]: no significant neuroprotection
IC50 [2]: 8 µM
neuroprotection against mice brain ischemia (brain ischemia): inactive
sigma-1 agonistic activity (sigma-1 [3]): sub-micromolar and selective sigma-1 agonism

CNCC1CCOC1(c1ccccc1)c1ccccc1 (stereo not shown) [AE37Met, tetrahydro-N-methyl-2,2-diphenyl-3-furanomethanamine]
concentration from which significant functional antagonism (M2) (M2 muscarinic receptors [4]): ≥ 3.0 µM
protection against PTZ convulsions (PTZ convulsions): protected; also recorded: high protective effects
memory perturbations [5]: no memory perturbations
IC50 (M2 muscarinic receptors [6]): 2.77 µM
increase of latency of lethality of PTZ ([7]; AE37Met 3.10 mg/kg po (so in the source)): 3.10 fold
increase of latency of lethality of PTZ ([7]; AE37Met 30 mg/kg po): 18 fold
concentration from which significant functional antagonism (M3) (M3 muscarinic receptors [8]): ≥ 3.0 µM
antagonistic effects on M2 and M3 muscarinic receptors in the periphery [9]: antagonistic effects
antagonism of Aβ25-35 induced amnesia and neurotoxicity ([10]; 0.3 to 3 mg/kg ip, mice): antagonized
antiamnesic action on co-administration with IAChEases ([10]; co-administered with Rivastigmine or Donepezil, Y-maze, step-through, intracerebral soluble amyloid 25-35, mice): higher than the sum of the antiamnesic effects
excitotoxic effects of the compound itself (functional excitotoxicity) (hippocampal slices): no excitotoxic effects
IC50 (sodium channels): 5.7 µM
IC50 (sigma-2 receptors): > 10 µM
antagonistic effects against NMDA induced functional excitotoxicity ([1]; AE37Met 1 to 10 μM, rat hippocampal slices): first antagonistic effects
neuroprotection against NMDA induced functional excitotoxicity [1]: high dose (concentration)-dependant neuroprotection
IC50 [2]: 1 µM
protection against MES convulsions (MES convulsions): protected; also recorded: high protective effects
IC50 (M3 muscarinic receptors [11]): 4.35 µM
IC50 (sigma-1 [12]): 0.67 µM
anti-immobility activity in the Porsolt test (immobility): high anti-immobility activity
protection against brain ischemia (brain ischemia; 5 to 15 mg/kg ip): protected; also recorded: significant antagonism
